Values quoted from earlier work as cited in patent publication US20100120775A1, “Farnesoid X Receptor Agonists” (SMITHKLINE BEECHAM CORPORATION, priority 2006, published 2010).
Entries after “also recorded” stand apart in the source; their conditions may differ.

Assays:
[1] = tested on: hepatic stellate cells (HSC); conditions: cultured HSCs; cited from earlier work
[2] = tested on: rodent models of hepatic fibrosis; conditions: multiple rodent models; cited from earlier work
mice on high-fat diet = conditions: cited from earlier work
ob/ob mice = conditions: male ob/ob mice; 30 mg/kg intraperitoneally; cited from earlier work
db/db mice = conditions: cited from earlier work
bile duct-ligated mouse = bile duct-ligated mouse model; cited from earlier work
[3] = tested on: mice on a lithogenic diet; conditions: cited from earlier work
[4] = 100 mg/kg twice a day orally, 100 mg/kg
[5] = db/db mice, oral 30 mg/kg, bid, serum

SMILES: CC[C@H]1[C@@H](O)[C@@H]2[C@H](CC[C@]3(C)[C@@H]([C@H](C)CCC(=O)O)CC[C@@H]23)[C@@]2(C)CC[C@@H](O)C[C@@H]12 [Example 6EtCDCA, 6-ethyl-chenodeoxycholic acid]
- expression of α1(I)collagen [1]: decreased
- expression of α-smooth muscle actin [1]: decreased
- hepatic fibrosis [2]: prevent development and promote resolution

SMILES: CC(C)c1onc(-c2c(Cl)cccc2Cl)c1COc1ccc(/C=C/c2cccc(C(=O)O)c2)c(Cl)c1 [GW4064]
- body weight / high-fat diet induced body weight gain (mice on high-fat diet; [4]): decrease; also recorded: reduced
- serum glucose (mice on high-fat diet; [4]): decreased
- serum insulin (mice on high-fat diet; [4]): decreased
- serum triglyceride (mice on high-fat diet; [4]): decreased
- glucose tolerance (mice on high-fat diet; 100 mg/kg twice a day orally, GTT, 100 mg/kg): corrected; also recorded: improve
- liver triglyceride content (mice on high-fat diet; 100 mg/kg twice a day orally): reduced
- body fat mass (mice on high-fat diet): decrease
- total cholesterol (mice on high-fat diet; serum): decrease
- body weight (ob/ob mice): did not alter
- fasting blood glucose (ob/ob mice): no effect
- food intake (ob/ob mice): did not alter
- glucose tolerance (ob/ob mice): improved
- insulin concentration (ob/ob mice): decreased
- insulin sensitivity (ob/ob mice): enhanced
- glycogen storage in the liver (db/db mice; db/db mice): enhanced
- insulin signalling in the liver (db/db mice; db/db mice): enhanced
- blood glucose (db/db mice; db/db mice, oral 30 mg/kg, bid): decreased
- serum β-hydroxybutyrate (db/db mice; db/db mice, oral 30 mg/kg, bid): decreased
- NEFA (db/db mice; [5]): decreased
- total cholesterol (db/db mice; [5]): decreased
- triglyceride (db/db mice; [5]): decreased
- hyperglycemia (db/db mice; diabetic db/db mice): significantly improved
- hyperlipidemia (db/db mice; diabetic db/db mice): significantly improved
- bacterial overgrowth (bile duct-ligated mouse): decreased
- mucosal barrier (bile duct-ligated mouse): improved
- translocation of bacteria to mesenteric lymph nodes (bile duct-ligated mouse): decreased
- formation of cholesterol crystals in the bile [3]: prevented
